Measured values: US20160263087A1, “NOVEL 4-(INDOL-3-YL)-PYRAZOLE DERIVATIVES, PHARMACEUTICAL COMPOSITIONS AND METHODS FOR USE” (ITEOS THERAPEUTICS, priority 2013, published 2016)

Columns and labels:
human TDO2 [1] = target: T1, human TDO2 (Homo sapiens, UniProt P48775); experiment: Cellular assay for TDO2 activity, A172 cells naturally expressing hTDO2; assay type: cell-based; parameters: expressed in transfected cells; host or cells: murine mastocytoma P815 cells; details: A172 cells naturally expressing hTDO2, overnight incubation, kynurenine absorbance at 480 nm
Experimental: (§1) The assay was performed in 96-well flat bottom plates seeded with […] A172 cells, naturally expressing hTDO2 (prepared as described in Tilman et al., Mol Cancer, 2007, 17(6), 80), at a concentration of 1.25×10^4 cells/well in a final volume of 200 μL. To determine TDO, the cells were incubated overnight at 37° C. at 5% CO2 in IMDM (Invitrogen) supplemented with 2% FBS and 2% penicillin/streptomycin in the presence of the compounds of the present invention, at different concentrations.
(§2) The plates were then centrifuged 5 min at 1000 rpm, and 100 μL of the supernatant were collected in a conical plate, 30 uL of TCA 30% were added and a further centrifugated at 3000×g for 10 minutes. 100 μL of the supernatant were collected in a flat bottomed plate and 100 μL of 2% (w/v) 4-(dimethylamino)-benzaldehyde in acetic acid and incubated for 5 min at room temperature. Kynurenine concentrations were determined by measuring the absorbance at 480 nm. A standard curve was made with pure kynurenine. The TDO activity was measured as described above using ten serial concentrations of the compounds of the present invention. Data were fitted using the Prism software (GraphPad Software, Inc.).

human TDO2 [2] = target: T1, human TDO2; experiment: Assay for TDO2 enzymatic activity determination; assay type: biochemical; parameters: made in house; details: human recombinant TDO2, L-Trp 1 mM, room temperature, one hour, kynurenine absorbance at 480 nm
Experimental: To measure the TDO2 activity, the reaction mixture contained (final concentrations) potassium phosphate buffer (50 mM, pH 7.5), ascorbic acid (0.25 M), methylene blue (0.125 μM), catalase (40 units/mL, from bovine liver, Sigma), and human recombinant TDO2 enzyme (prepared as described in Dolusic et al. J. Med. Chem.; 2011, 54, 5320-5334; 0.9 μg) without or with the compounds of the present invention at the indicated concentrations (total volume 112.5 μL). The reaction was initiated by the addition of 37.5 μL of L-Trp (final concentration 1 mM) at room temperature. The reaction was conducted at room temperature during one hour and stopped by the addition of 30 μL of 30% (w/v) trichloroacetic acid.
To convert N-formylkynurenine into kynurenine, the reaction mixture was incubated at 65° C. for 30 min. Then 150 μL of the reaction mixture was mixed with 120 μL of 2.5% (w/v) 4-(dimethylamino)-benzaldehyde in acetic acid and incubated for 5 min at room temperature. Kynurenine concentrations were determined by measuring the absorbance at 480 nm. A standard curve was made with pure kynurenine. The TDO activity was measured as described above using ten serial concentrations of the compounds of the present invention. Data were fitted using the Prism software (GraphPad Software, Inc.).

human TDO2 [3] = target: T1, human TDO2; experiment: Cellular assay for TDO2 activity, hTDO2-overexpressing P815 cells; assay type: cell-based; parameters: expressed in transfected cells; host or cells: murine mastocytoma P815 cells; details: murine mastocytoma P815 cells overexpressing hTDO2, overnight incubation, kynurenine absorbance at 480 nm
Experimental: as §1, with “P815 cells overexpressing” for “A172 cells, naturally expressing”, “Pilotte” for “Tilman”, “PNAS, 2012, 109(7), 2497-2502),” for “Mol Cancer, 2007, 17(6), 80),”, “5×10^4” for “1.25×10^4”, “TDO or IDO activity,” for “TDO,”
as §2

TDO2 = target: T2, TDO2 (Mus musculus, UniProt P48776); experiment: Pharmacodynamic assay for TDO2 in vivo activity: increase of blood tryptophan levels in mice; details: for increase of circulating Tryptophan: plasma after two hours, vs vehicle; for Tryptophan concentration in plasma (average ± standard error of the mean): two hours, LC-MS-MS
T2 construct: from tissue; host or cells: live mice (whole animal; plasma tryptophan read-out)
Experimental: The compounds of the present invention increase the amount of Tryptophan in mouse blood.
Briefly, mice were treated with either a suspension of one of the compounds of the present invention in 0.5% HPMC K4M/0.25% Tween 20 at different doses (30, 60 and 100 mg/kg), or with a vehicle control (0.5% HPMC K4M/0.25% Tween 20), by the oral route by gavage (dosing volume 5 mL/kg, 10 mice per group). After two hours, blood was harvested, plasma was prepared and the amount of Tryptophan present was determined by LC-MS-MS (HPLC column Unison UK-Phenyl, 75×4.6, 3 μm, flow rate 0.8 mL/min, 8 minutes gradient from 95% water+0.1% formic acid/5% Acetonitrile+0.1% formic acid to 5% water+0.1% formic acid/95% Acetonitrile+0.1% formic acid, retention time 2.4 min; API4000 MS-MS system from AB Sciex, ESI+ mode, parent ion 205.1, daughter ion 146.1).

T1 sequence (P48775 whole entry): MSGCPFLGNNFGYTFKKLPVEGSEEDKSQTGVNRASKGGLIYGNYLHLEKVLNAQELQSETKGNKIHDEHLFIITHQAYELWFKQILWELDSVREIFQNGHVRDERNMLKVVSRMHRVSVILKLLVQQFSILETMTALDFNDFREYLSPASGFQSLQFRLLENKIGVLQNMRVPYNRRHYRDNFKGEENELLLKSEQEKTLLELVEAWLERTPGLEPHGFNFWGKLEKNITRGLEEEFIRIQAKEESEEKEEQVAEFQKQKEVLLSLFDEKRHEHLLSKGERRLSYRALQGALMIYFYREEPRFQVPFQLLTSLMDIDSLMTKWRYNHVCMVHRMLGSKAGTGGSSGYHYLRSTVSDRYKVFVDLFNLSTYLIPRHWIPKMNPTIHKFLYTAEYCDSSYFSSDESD
T2 sequence (P48776 whole entry): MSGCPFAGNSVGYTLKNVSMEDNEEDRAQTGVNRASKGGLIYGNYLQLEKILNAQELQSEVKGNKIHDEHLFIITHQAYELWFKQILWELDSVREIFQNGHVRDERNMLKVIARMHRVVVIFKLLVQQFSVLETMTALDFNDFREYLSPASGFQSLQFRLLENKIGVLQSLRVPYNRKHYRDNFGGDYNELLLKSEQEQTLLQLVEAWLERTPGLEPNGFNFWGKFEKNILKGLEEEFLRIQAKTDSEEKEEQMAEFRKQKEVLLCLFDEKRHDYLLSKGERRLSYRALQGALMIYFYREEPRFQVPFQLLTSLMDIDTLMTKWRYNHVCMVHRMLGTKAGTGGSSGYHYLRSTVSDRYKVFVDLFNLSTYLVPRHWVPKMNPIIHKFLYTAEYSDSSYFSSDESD

| SMILES | IC50 (human TDO2 [2]) [µM] | IC50 (human TDO2 [3]) [µM] | also measured |
| --- | --- | --- | --- |
| Fc1ccc2c(-c3cnn(CC4CCNCC4)c3)c[nH]c2c1 [Compound 43, 6-fluoro-3-(1-(piperidin-4-ylmethyl)-1H-pyrazol-4-yl)-1H-indole] | – | – | IC50 (human TDO2 [1]): < 1 µM |
| OC1CCC(n2cc(-c3c[nH]c4cc(F)ccc34)cn2)CC1 [Compound 68, (1R,4R)-4-(4-(6-fluoro-1H-indol-3-yl)-1H-pyrazol-1-yl)cyclohexanol] | 1 to 10 | < 1 | – |
| Cc1nn(C)cc1-c1c[nH]c2cc(F)ccc12 [Compound 75, 3-(1,3-dimethyl-1H-pyrazol-4-yl)-6-fluoro-1H-indole] | 1 to 10 | < 1 | – |
| COCC(=O)N1CCC(n2cc(-c3c[nH]c4cc(F)ccc34)cn2)CC1 [Compound 85, 1-(4-(4-(6-fluoro-1H-indol-3-yl)-1H-pyrazol-1-yl)piperidin-1-yl)-2-methoxyethanone] | – | – | IC50 (human TDO2 [1]): < 1 µM |
| CC(=O)N1CCC(n2cc(-c3c[nH]c4cc(F)ccc34)cn2)CC1 [Compound 89, 1-(4-(4-(6-fluoro-1H-indol-3-yl)-1H-pyrazol-1-yl)piperidin-1-yl)ethanone] | – | – | increase of circulating Tryptophan (TDO2; 30 mg/kg oral gavage, p<0.05): 26%; Tryptophan concentration in plasma (average ± standard error of the mean) (TDO2; 30 mg/kg oral gavage): 25126 ng/mL; Tryptophan concentration in plasma (average ± standard error of the mean) (TDO2; 60 mg/kg oral gavage): 28452 ng/mL; increase of circulating Tryptophan (TDO2; 100 mg/kg oral gavage, p<0.001): 43%; Tryptophan concentration in plasma (average ± standard error of the mean) (TDO2; 100 mg/kg oral gavage): 28374 ng/mL; increase of circulating Tryptophan (TDO2; printed 30 mg/kg (second mention, p<0.001), oral gavage): 43%; melting point: 183.2 to 184.5 °C |
| O=C(CCO)N1CCC(n2cc(-c3c[nH]c4cc(F)ccc34)cn2)CC1 [Compound 104, 1-(4-(4-(6-fluoro-1H-indol-3-yl)-1H-pyrazol-1-yl)piperidin-1-yl)-3-hydroxypropan-1-one] | 1 to 10 | < 1 | – |
| CS(=O)(=O)CCC(=O)N1CCC(n2cc(-c3c[nH]c4cc(F)ccc34)cn2)CC1 [Compound 105, 1-(4-(4-(6-fluoro-1H-indol-3-yl)-1H-pyrazol-1-yl)piperidin-1-yl)-3-(methylsulfonyl)propan-1-one] | 1 to 10 | < 1 | – |
| CS(=O)(=O)N1CCC(n2cc(-c3c[nH]c4cc(F)ccc34)cn2)CC1 [Compound 106, 6-fluoro-3-(1-(1-(methylsulfonyl)piperidin-4-yl)-1H-pyrazol-4-yl)-1H-indole] | 1 to 10 | < 1 | IC50 (human TDO2 [1]): < 1 µM |

Further lines, with some results ahead:

| IC50 (human TDO2 [2]) [µM] | IC50 (human TDO2 [3]) [µM] | SMILES | also measured |
| --- | --- | --- | --- |
| 1 to 10 | 1 to 10 | OC1(Cn2cc(-c3c[nH]c4cc(F)ccc34)cn2)CCOCC1 [Compound 59, 4-((4-(6-fluoro-1H-indol-3-yl)-1H-pyrazol-1-yl)methyl)tetrahydro-2H-pyran-4-ol] | – |
| 10 to 100 | 1 to 10 | Cn1ncc(-c2c[nH]c3ccccc23)c1C(F)(F)F [Compound 77, 3-(1-methyl-5-(trifluoromethyl)-1H-pyrazol-4-yl)-1H-indole] | – |
| 10 to 100 | 1 to 10 | CS(=O)(=O)CCCC(=O)N1CCC(n2cc(-c3c[nH]c4cc(F)ccc34)cn2)CC1 [Compound 103, 1-(4-(4-(6-fluoro-1H-indol-3-yl)-1H-pyrazol-1-yl)piperidin-1-yl)-4-(methylsulfonyl)butan-1-one] | – |
